# Source: patent US6884575B2, “Phosphoprotein target for insulin and its antagonists” (Protemix Corporation Limited, priority 2001, dated 2005)
# Values joined by “and” are separate entries in the source; they are usually repeats but may differ in a detail not shown here. Identical values can stand only once. Ends that are not written are not given here.
# Columns and labels:
# P20 [1] = assay: Phosphorylation of P20 isoforms in 32P-labelled rat EDL muscle strips (2-DE, phosphorimaging); format: cell-based; conditions: for radioactivity of P20 isoform S1 / radioactivity of P20 isoform S2 / radioactivity of P20 isoform S3: hormones 50 nM, 30 min, n=4
# Procedure: Rat extensor digitorum longus (EDL) muscle strips were prepared from 18 h-fasted rats. Dissection and isolation of muscles were carried out under anaesthesia with pentobarbital (5-7 mg/100 g of body weight, intraperitoneally) as described previously (23). Each muscle was split into three ˜1 mm width strips. Muscle strips were pre-incubated in a shaking incubator at 30° C. for 1 h in 5 ml of Dulbecco's Modified Eagle's medium without sodium phosphate. All incubation media were gassed with a mixture of 95% O2 and 5% CO2. The muscle strips were subsequently transferred to similar flasks containing identical medium plus 0.25 mCi/ml [^32P]-orthophosphate and incubated for a further 4 h to equilibrate the internal ATP pool (23, 24). Human insulin, rat amylin, epinephrine or CGRP were then added to the incubation media for 30 min at stated final concentrations. Reactions were terminated by freezing muscle strips in liquid nitrogen immediately after incubation. Muscle strips were then weighed and stored at −80° C. until further analysis.
# Muscle strips were homogenized in 2-DE lysis buffer (9M urea, 2% v/v triton X-100, 2% v/v pharmalyte pH 3-10, 200 mM DTT, 8 mM PMSF) for 5 min on ice. The lysates were briefly sonicated and microcentrifuged at 12,000 rpm for 10 min to remove debris. Protein concentrations were determined by the Bradford method and radioactivity was measured by liquid scintillation counting. ^32P-labelled lysates with equivalent amounts of radioactivity were isoelectrically focused on IPG Drystrip pH 4-7 and pH 3-10 Linear gels using a multiphor RII electrophoresis system according to the manufacturer's instructions. Second dimensional SDS-PAGE was carried out using ExcelGel™ precast 12-14% acrylamide gradient gels. After electrophoresis the gels were fixed in 10% glacial acetic acid, 40% ethanol and the proteins visualized by phosphorimaging or autoradiography.
# Autoradiography films were scanned and digitised using a Sharp JX-325 scanner, and protein spots detected, quantitated and analysed using the Melanie II software package, ver. 2.2 (Biorad). The detection parameters were: smooth 2, Laplacian threshold 3, partials threshold 1, saturation 90, peakedness increase 100 and minimum perimeter 10. The matching of multiple features to one feature was not allowed. The pixel value is the optical density (OD). Features were calculated as a percentage of the sum of VOL (the feature's volume, i.e., the integration of OD over the feature's area) for all features on the gel. The radioactivity of protein spots was also detected by a phosphorimager and analysed by MacBAS v2.5 software. […] All the results presented are based on at least three independent experiments. Statistical analysis was performed using the t-test (paired two sample).
# skeletal muscle = assay: In vitro [14C(U)]-D-glucose incorporation assay in skeletal muscle (insulin-stimulated glycogen synthesis); format: cell-based, rat; conditions: muscle of dexamethasone-treated rats
# Procedure: (§1) All experimental protocols were approved by the Institutional Animal Ethics Committee. Male Wistar rats were injected with dexamethasone (3.1 mg/kg/day, intraperitoneally) for 7 days. The daily weights of rats in both control and dexamethasone-treated groups were monitored. […] Rats were fasted for 18 h prior to each experiment and were killed by cervical dislocation. Blood was obtained by cardiac puncture from anesthetized animals. The mean blood glucose concentration was 5.4±0.2 mM and 10.8±0.6 mM in control and dexamethasone-treated rats, respectively, as measured with a YSI 2300STAT glucose/lactate analyser (Yellow Springs Instruments). […] Insulin and amylin concentrations in the blood of normal and insulin resistant rats were determined as described (17). Rats with insulin resistance induced by chronic high fat feeding were generated as described previously (26).
# Male Wistar rats = format: in vivo, rat
# Procedure: as §1
# P20 [2] = assay: P20 mRNA (northern blot) and protein (western blot) in EDL muscle; format: cell-based, rat; conditions: dexamethasone-injected rats or strips with 50 nM amylin 30 min
# Procedure: About 50 μg proteins from liver, heart, epididymal fat pad, aortic smooth muscle, EDL muscle, soleus muscle tissues and whole blood obtained from 18 h-fasted male Wistar rats were separated by SDS-PAGE and subsequently transferred to nitrocellulose membranes. The membranes were blocked over night at 4° C. and then incubated with rabbit anti-P20 polyclonal antibody (1:1000) for 2 h at room temperature. After incubation with streptavidin-biotinylated horseradish peroxidase-conjugated secondary antibody for another 1 h at room temperature, the proteins immunoreactive to the primary antibody were visualised by enhanced chemiluminescence (ECL) detection according to the manufacturer's instructions.
# Total cellular RNA was isolated from EDL muscle of 18 h-fasted control and dexamethasone-treated rats using TRIZOL reagent. 15 μg of RNA from each sample was separated by 1.5% agarose-formaldehyde gel electrophoresis and subsequently transferred to Hybond-N^+ nylon membranes by capillary blotting in 20×SSC. The P20 cDNA probe was labelled with ^32P-dCTP using a random primer labelling system. […] Membranes were then washed, analysed using a phosphorimager and quantitated by MacBAS v2.5 software. For comparison, RNA samples from EDL muscle strips treated with or without 50 nM amylin were also analysed in parallel.
# L6 myotubes = assay: 2-deoxyglucose uptake in L6 myotubes; format: cell-based
# Procedure: L6 myoblast cells were transfected with pCXN2-GLUT4myc (27), or co-transfected with pCXN2-GLUT4myc and pcDNA.P20, using Lipofectamine Plus reagent according to the manufacturer's instructions. Stable transfectants were selected in medium containing the neomycin analogue G418 at 400 μg/ml. At 10 days after transfection, the clones were selected using sterilised steel rings and expanded separately in the presence of G418. Clones that express P20 and myc-tagged GLUT4 were chosen by western blotting and used for further experiments.
# L6 cells stably overexpressing myc-tagged GLUT4, or myc-tagged GLUT4 plus P20, were grown in 6-well plates and differentiated into myotubes in DMEM containing 2% fetal bovine serum for 7 days. The cells were deprived of serum for 16 h prior to experiments. For glucose uptake assays, L6 myotubes were rinsed three times with Krebs-Henseleit buffer (KHB) and incubated in KHB with or without hormones (insulin or insulin plus amylin) at the indicated concentrations for 15 min at 37° C. Carrier-mediated glucose uptake of 10 μM 2-deoxy-D-[^3H] glucose in the above solution was measured for 15 min at 37° C. This was followed by rinsing the cells three times with ice-cold PBS and cell disruption with 0.1 N NaOH. The associated radioactivity was determined by liquid scintillation counting. The protein concentration was measured with a BCA protein quantitation kit (PIERCE). The nonspecific uptake was determined in the presence of 10 μM cytochalasin B and subtracted from each value.
# [3] = EDL strips from dexamethasone-treated rats, basal = no hormone
# [4] = EDL strips from non-diabetic control rats, mean ± SD
# [5] = cells overexpressing both P20 and GLUT4myc vs GLUT4myc alone, n=4
Compound,radioactivity of P20 isoform S1 (P20 [1]; [3]),radioactivity of P20 isoform S2 (P20 [1]; [3]),radioactivity of P20 isoform S3 (P20 [1]; [3]),"signals of both S2 and S3, fold higher than control rats (P20 [1]; without hormone stimulation, dexamethasone 3.1 mg/kg/day i.p. for 7 days)",reduction in rates of insulin-stimulated glycogen synthesis (skeletal muscle),"mean blood glucose concentration (Male Wistar rats; 3.1 mg/kg/day i.p. for 7 days, 18 h fasted)",fasted basal plasma concentration of amylin (Male Wistar rats; dexamethasone-treated rats),fasted basal plasma concentration of insulin (Male Wistar rats; dexamethasone-treated rats),P20 mRNA level and protein abundance (P20 [2]),"decrease of insulin-induced phosphorylation of S1 (P20 [1]; 50 nM insulin plus 50 nM amylin vs 50 nM insulin alone, normal rats)",radioactivity of P20 isoform S1 (P20 [1]; [4]),radioactivity of P20 isoform S2 (P20 [1]; [4]),radioactivity of P20 isoform S3 (P20 [1]; [4]),"decrease of insulin-stimulated glucose uptake (L6 myotubes; GLUT4myc alone, 50 nM insulin plus 50 nM amylin)",increase of the inhibitory effect of amylin by P20 overexpression (L6 myotubes; [5]),"effect on phosphorylation of S2 and S3 induced by epinephrine and CGRP (P20 [1]; 50 nM each, normal rats)","decrease of amylin-evoked phosphorylation of S3 (P20 [1]; 50 nM insulin plus 50 nM amylin vs amylin alone, normal rats)",effect on amylin-evoked phosphorylation of S2 and S3 (P20 [1]; diabetic (dexamethasone-treated) rats),decrease of insulin-stimulated glucose uptake by P20 overexpression (L6 myotubes; [5]),"increase of 2-deoxyglucose uptake over basal level (L6 myotubes; myotubes overexpressing GLUT4myc alone, 50 nM insulin)"
"C[C@@H]1C[C@H]2[C@@H]3CCC4=CC(=O)C=C[C@]4(C)[C@@]3(F)[C@@H](O)C[C@]2(C)[C@@]1(O)C(=O)CO [Dexamethasone, dexamethasone]",439 PSL,102 PSL,98.6 PSL,about 5 fold,over 95%,10.8 ± 0.6 mM,144±17 pmol/1,789±94 pmol/1,–,–,–,–,–,–,–,–,–,–,–,–
"Amylin: Rat amylin purchased from Bachem; hormone co-secreted with insulin from pancreatic islet β-cells (KCNTATCATQRLANFLVRSSNNLGPVLPPTNVGSNTY; ends and bridges not checked; cysteine pairing not given here; UniProt P12969 38-74, looked up)",181 PSL,280 PSL,208 PSL,–,–,–,–,–,not changed,49%,191 ± 9 PSL,289 ± 20 PSL,226 ± 17 PSL,28%,24±2%,–,–,–,–,–
Insulin: Human insulin was Actrapid from Novo Nordisk,843 PSL,96.6 PSL,92 PSL,–,–,–,–,–,–,–,831 ± 40 PSL,20.3 ± 3.4 PSL,13.3 ± 1.3 PSL,–,–,no effect,73% and ~74%,little affected,41±3%,2.94±0.31 fold
